From ChEMBL document CHEMBL1201862, “PubChem BioAssay data set” (2004) come the findings set out here.

Some test systems named below: SK-MEL-5; A549; SF-268; HL-60; HCC 2998; SW-620; SK-MEL-28; KM-20L2; M14; 786-0; U-251; HCT-15; KM12; UACC-257; MOLT-4; ACHN; SK-MEL-2; SNB-19.
What all share (experiment): NCI anticancer screen, dose series, 48 h

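Test compounds were applied to cells in 96-well plates for 48 hours at 5 doses. The concentration for 50% growth inhibition is given as GI50.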 Active and inactive are the calls of the source. Rule as the data show it: active = GI50 up to about 1.1 µM and inactive = higher. Where only a bound is given, the exact number is not on record here.

With `C[C@@H](c1ccccc1)N(CC#N)C1CCC[C@H]1O` (stereo partly specified), the GI50 in the experiment with SK-MEL-5, with A549, in the experiment on SF-268, in the experiment with HL-60, in the experiment on HCC 2998 and in the experiment with SW-620 was > 100 µM (inactive) each time. Besides, the GI50 was > 100 µM (inactive) with SK-MEL-28; > 100 µM (inactive) with KM-20L2; > 100 µM (inactive) with M14; > 100 µM (inactive) in the experiment with 786-0; > 100 µM (inactive) with U-251; over 100 µM in the experiment with HCT-15. For the same compound, the GI50 in the experiment on KM12, with UACC-257, in the experiment with MOLT-4, in the experiment on ACHN, in the experiment with SK-MEL-2 and with SNB-19 was > 100 µM (inactive) in each case.
With `Nc1ccc(C(=O)NN2C(=O)C(Cl)C2c2ccccc2Cl)cc1` (stereo unspecified), the GI50 is 16 µM (inactive) in the experiment with SK-MEL-5; 14.3 µM (inactive) with A549; 3.84 µM (inactive) with SF-268; 1.02 µM (active) with HL-60; 16.5 µM (inactive) with HCC 2998; 3.46 µM (inactive) in the experiment with SW-620. The GI50 with SK-MEL-28 is 14.8 µM (inactive); with KM-20L2 it was 15.8 µM (inactive); in the experiment on M14, 13.1 µM (inactive); in the experiment with 786-0, 1.69 µM (inactive); in the experiment on U-251 it was 12.3 µM (inactive); with HCT-15 it was 3.01 µM. Besides, the GI50 in the experiment on KM12 is 12.1 µM (inactive); with UACC-257, 13.6 µM (inactive); with MOLT-4, 1.59 µM (inactive); with ACHN, 16.4 µM (inactive); in the experiment with SK-MEL-2, 11.3 µM (inactive); in the experiment on SNB-19, 16.9 µM (inactive).
Take `COC(=O)C1CC(C(=O)OC)c2nc3cc([N+](=O)[O-])ccc3nc21` (stereo unspecified): the GI50 was 58.7 µM (inactive) in the experiment with SK-MEL-5; 43.1 µM (inactive) in the experiment on A549; 26.4 µM (inactive) in the experiment on SF-268; 7.23 µM (inactive) with HL-60; 30.5 µM (inactive) with HCC 2998; 89.9 µM (inactive) in the experiment on SW-620. Besides, the GI50 is > 77.3 µM (inactive) in the experiment on SK-MEL-28; 63.7 µM (inactive) with KM-20L2; 39 µM (inactive) in the experiment on M14; > 87.9 µM (inactive) in the experiment with 786-0; 98.2 µM (inactive) with U-251; 17.8 µM with HCT-15. Moreover, the GI50 is 23.1 µM (inactive) in the experiment with KM12; 55.6 µM (inactive) with UACC-257; 19.4 µM (inactive) in the experiment on MOLT-4; 45.9 µM (inactive) in the experiment with ACHN; > 100 µM (inactive) in the experiment with SK-MEL-2; > 67.9 µM (inactive) with SNB-19.
For `COC(OC)c1cccc2c1C1(O)CCC3(CC21)OCCCCO3` (stereo unspecified), the GI50 in the experiment with SK-MEL-5, with A549, with SF-268, in the experiment with HL-60, in the experiment on HCC 2998 and in the experiment on SK-MEL-28 was > 100 µM (inactive) in each case. In addition, the GI50 in the experiment on KM-20L2 was > 100 µM (inactive); with M14, > 100 µM (inactive); in the experiment on 786-0, > 100 µM (inactive); in the experiment with U-251, > 100 µM (inactive); with HCT-15, over 100 µM; in the experiment with KM12 it was > 100 µM (inactive). Also, the GI50 in the experiment on UACC-257, with MOLT-4, in the experiment on ACHN, in the experiment on SK-MEL-2 and with SNB-19 was > 100 µM (inactive) each time.
In the case of `CN1C2C=C(c3ccccc3)CC1CC2` (stereo unspecified), the GI50 in the experiment with SK-MEL-5, with A549, with SF-268, in the experiment with HL-60, in the experiment on HCC 2998 and with SW-620 was > 100 µM (inactive) in each case. The GI50 with SK-MEL-28 is > 100 µM (inactive); in the experiment with KM-20L2 it was > 100 µM (inactive); with M14, > 100 µM (inactive); with 786-0, > 100 µM (inactive); in the experiment with U-251, > 100 µM (inactive); in the experiment with HCT-15 it was over 100 µM. The GI50 in the experiment on KM12, with UACC-257, with MOLT-4, in the experiment on ACHN, with SK-MEL-2 and in the experiment on SNB-19 was > 100 µM (inactive) in each case.
For the compound `CC(C)NC1CCCCC2c3cc(F)ccc3[C@]12O` (stereo partly specified), the GI50 with SK-MEL-5, in the experiment with A549, with SF-268, in the experiment with HL-60, in the experiment on HCC 2998 and with SW-620 was > 100 µM (inactive) in each case. Moreover, the GI50 was > 100 µM (inactive) with SK-MEL-28; > 100 µM (inactive) with KM-20L2; > 100 µM (inactive) in the experiment with M14; > 100 µM (inactive) in the experiment on 786-0; > 100 µM (inactive) in the experiment with U-251; over 100 µM in the experiment on HCT-15. The GI50 in the experiment with KM12, in the experiment on UACC-257, with MOLT-4, in the experiment on ACHN, with SK-MEL-2 and in the experiment on SNB-19 was > 100 µM (inactive) each time.
For the compound `Cc1cccc(C(C)C)c1NC(=O)C(=O)CC(=O)c1c(C)[n+]([O-])c2ccccc2[n+]1[O-]`, the GI50 in the experiment with SK-MEL-5 is 34 µM (inactive); in the experiment on A549, 36.7 µM (inactive); in the experiment with SF-268, 30.1 µM (inactive); in the experiment with HL-60, 41.2 µM (inactive); with HCC 2998 it was 34.3 µM (inactive); in the experiment with SW-620, 33.1 µM (inactive). Also, the GI50 is 36.1 µM (inactive) in the experiment on SK-MEL-28; 37.6 µM (inactive) in the experiment on KM-20L2; 27.8 µM (inactive) in the experiment with M14; 49.1 µM (inactive) with 786-0; 34.1 µM (inactive) in the experiment with U-251; 20.9 µM in the experiment on HCT-15. Further, the GI50 with KM12 is 38.6 µM (inactive); in the experiment on UACC-257, 23.3 µM (inactive); in the experiment with MOLT-4 it was 21.5 µM (inactive); in the experiment with ACHN, > 100 µM (inactive); in the experiment with SK-MEL-2, 29.3 µM (inactive); with SNB-19, 31.8 µM (inactive).
For the compound `COC(=O)C1=C(O)c2cc(OC)c(OC)cc2C(c2ccc(OC)c(OC)c2)C1` (stereo unspecified), the GI50 with SK-MEL-5 is > 100 µM (inactive); with A549 it was > 100 µM (inactive); in the experiment with SF-268 it was 69.3 µM (inactive); in the experiment on HL-60 it was > 100 µM (inactive); with HCC 2998 it was > 100 µM (inactive); with SW-620 it was 54.8 µM (inactive). Besides, the GI50 was > 100 µM (inactive) with SK-MEL-28; 86.7 µM (inactive) in the experiment with KM-20L2; > 100 µM (inactive) with M14; > 100 µM (inactive) in the experiment with 786-0; > 100 µM (inactive) with U-251; 78.7 µM in the experiment on HCT-15. Also, the GI50 in the experiment on KM12 was 76.9 µM (inactive); in the experiment with UACC-257, > 100 µM (inactive); with MOLT-4, 88.5 µM (inactive); with ACHN, 77.3 µM (inactive); in the experiment on SK-MEL-2, > 100 µM (inactive).
In the case of `CCO/C=C1\N=C(C(Cl)c2ccccc2)OC1=O` (stereo unspecified), the GI50 in the experiment on SK-MEL-5, in the experiment on A549, in the experiment with SF-268, with HL-60, in the experiment with HCC 2998 and in the experiment with SW-620 was > 100 µM (inactive) throughout. The GI50 in the experiment on SK-MEL-28 is > 100 µM (inactive); in the experiment with KM-20L2, > 100 µM (inactive); in the experiment with M14, > 100 µM (inactive); in the experiment on 786-0 it was > 100 µM (inactive); in the experiment with HCT-15 it was over 100 µM; in the experiment with KM12, > 100 µM (inactive). Also, the GI50 with UACC-257, in the experiment on MOLT-4, with ACHN, in the experiment on SK-MEL-2 and with SNB-19 was > 100 µM (inactive) each time.
For the compound `BrC1=CC=C2NC=CC3=CC=NC1C32` (stereo unspecified), the GI50 in the experiment on SK-MEL-5 is 20 µM (inactive); in the experiment on SF-268, 15.5 µM (inactive); with HL-60, 4.08 µM (inactive); in the experiment on HCC 2998 it was 35.1 µM (inactive); in the experiment on SW-620, 8.95 µM (inactive); in the experiment on SK-MEL-28, 37.7 µM (inactive). Further, the GI50 in the experiment on KM-20L2 was 19.7 µM (inactive); in the experiment with M14, 18 µM (inactive); with 786-0 it was 8.34 µM (inactive); in the experiment on U-251, 7.67 µM (inactive); in the experiment on HCT-15 it was 18.9 µM; with KM12 it was 24.2 µM (inactive). Besides, the GI50 was 33.5 µM (inactive) in the experiment on UACC-257; 2.75 µM (inactive) with MOLT-4; 7.26 µM (inactive) with ACHN; 18.9 µM (inactive) in the experiment on SK-MEL-2; 8.51 µM (inactive) in the experiment with SNB-19.
Take `CC1=NN(C(=O)CC(=O)Nc2ccccc2)C(=O)C1/N=N/c1ccc(S(N)(=O)=O)cc1` (stereo unspecified): the GI50 in the experiment with SK-MEL-5 was 36.4 µM (inactive); with A549, > 100 µM (inactive); with SF-268, 80.9 µM (inactive); in the experiment on HL-60 it was 18 µM (inactive); in the experiment on HCC 2998, 49.9 µM (inactive); in the experiment with SW-620 it was 59.4 µM (inactive). Moreover, the GI50 in the experiment on SK-MEL-28 was 61.4 µM (inactive); with KM-20L2, > 100 µM (inactive); in the experiment on M14, 80.2 µM (inactive); in the experiment on 786-0, 66.5 µM (inactive); in the experiment with U-251, 56.4 µM (inactive); in the experiment with HCT-15, over 100 µM. Moreover, the GI50 in the experiment with KM12 was > 100 µM (inactive); in the experiment with UACC-257 it was > 100 µM (inactive); in the experiment with MOLT-4, 37.5 µM (inactive); in the experiment on ACHN, > 100 µM (inactive); in the experiment on SK-MEL-2, > 100 µM (inactive); with SNB-19, 71.6 µM (inactive).
Regarding `CC#C[P+](c1ccccc1)(c1ccccc1)c1ccccc1`, the GI50 in the experiment with SK-MEL-5 was 2.2 µM (inactive); with A549 it was 7.91 µM (inactive); in the experiment on SF-268, 2.09 µM (inactive); in the experiment with HL-60, 3.71 µM (inactive); in the experiment on HCC 2998, 3.52 µM (inactive); with SK-MEL-28, 12.2 µM (inactive). Further, the GI50 with KM-20L2 was 6.71 µM (inactive); with M14, 1.88 µM (inactive); in the experiment on 786-0 it was 1.6 µM (inactive); with U-251 it was 0.861 µM (active); with HCT-15 it was 2.66 µM; with KM12, 2.88 µM (inactive). The GI50 is 2.76 µM (inactive) in the experiment on UACC-257; 0.953 µM (active) with MOLT-4; 3.99 µM (inactive) in the experiment with ACHN; 1.56 µM (inactive) with SK-MEL-2; 3.3 µM (inactive) in the experiment on SNB-19.
